Data: BigSolDB 2.1

COC(=O)Nc1nc2ccccc2[nH]1
solubility (mole fraction)
Details	278.15 K	283.15 K	288.15 K	293.15 K	298.15 K	303.15 K	308.15 K	313.15 K	318.15 K	323.15 K
in ethanol	6.39e-06	1.05e-05	1.58e-05	2.3e-05	3.19e-05	4.34e-05	5.78e-05	7.66e-05	0.000101	0.000134
in methanol	3.19e-05	4e-05	5.2e-05	6.33e-05	7.77e-05	9.85e-05	0.000118	0.000143	0.000173	0.000201
in n-butanol	2.12e-06	3.75e-06	6.22e-06	9.84e-06	1.5e-05	2.28e-05	3.34e-05	5.07e-05	7.61e-05	0.000111
in n-pentanol	1e-06	2e-06	3.62e-06	6.19e-06	1.05e-05	1.69e-05	2.87e-05	4.55e-05	6.8e-05	0.000101
in n-propanol	3.3e-06	5.42e-06	8.66e-06	1.3e-05	1.89e-05	2.73e-05	3.92e-05	5.57e-05	8.38e-05	0.00012
